As usually defined, the IC50 is the concentration at which inhibition is half-maximal. By solubility is commonly meant how much of the substance goes into solution per volume. As a reminder, the bioavailability is the share of a dose that reaches the circulation, judged against a reference dose that is usually intravenous. A low value points to little systemic uptake. One may read the EC50 as the concentration giving half of the maximal effect. For orientation: Kd means the constant that tells how readily two partners part at equilibrium. A higher Kd goes with a looser complex.

Values after ≈ are worked out from the molar mass of the structure shown.

Series [1] deals with T1, NAD-dependent protein deacetylase sirtuin-2 (Homo sapiens, UniProt Q8IXJ6).
T1 sequence (Q8IXJ6 whole entry): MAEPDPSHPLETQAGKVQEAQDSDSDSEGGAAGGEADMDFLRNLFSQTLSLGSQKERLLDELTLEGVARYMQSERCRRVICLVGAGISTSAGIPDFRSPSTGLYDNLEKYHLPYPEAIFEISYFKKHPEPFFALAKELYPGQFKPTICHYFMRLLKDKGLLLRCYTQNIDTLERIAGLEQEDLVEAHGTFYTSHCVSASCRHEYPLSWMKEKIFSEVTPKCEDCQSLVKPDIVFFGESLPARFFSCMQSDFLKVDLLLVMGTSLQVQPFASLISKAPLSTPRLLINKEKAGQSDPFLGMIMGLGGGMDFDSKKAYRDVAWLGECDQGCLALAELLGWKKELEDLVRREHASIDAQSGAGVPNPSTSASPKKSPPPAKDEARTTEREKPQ
Put plainly: Inhibition of human recombinant SIRT2 using alpha-tubulin as substrate by coupled enzymatic analysis.

Series [2] is described as follows: Toxicity in Drosophila infected with huntington disease assessed as survival rate at 1 to 30 uM relative to control. The following applies: dose 1-30 µM, read-out: Activity.
The target in series [3] is Kelch-like ECH-associated protein 1 (Homo sapiens, UniProt Q14145). Put plainly: Inhibition of KEAP1 (unknown origin).
Sequence of Kelch-like ECH-associated protein 1 (Q14145 whole entry): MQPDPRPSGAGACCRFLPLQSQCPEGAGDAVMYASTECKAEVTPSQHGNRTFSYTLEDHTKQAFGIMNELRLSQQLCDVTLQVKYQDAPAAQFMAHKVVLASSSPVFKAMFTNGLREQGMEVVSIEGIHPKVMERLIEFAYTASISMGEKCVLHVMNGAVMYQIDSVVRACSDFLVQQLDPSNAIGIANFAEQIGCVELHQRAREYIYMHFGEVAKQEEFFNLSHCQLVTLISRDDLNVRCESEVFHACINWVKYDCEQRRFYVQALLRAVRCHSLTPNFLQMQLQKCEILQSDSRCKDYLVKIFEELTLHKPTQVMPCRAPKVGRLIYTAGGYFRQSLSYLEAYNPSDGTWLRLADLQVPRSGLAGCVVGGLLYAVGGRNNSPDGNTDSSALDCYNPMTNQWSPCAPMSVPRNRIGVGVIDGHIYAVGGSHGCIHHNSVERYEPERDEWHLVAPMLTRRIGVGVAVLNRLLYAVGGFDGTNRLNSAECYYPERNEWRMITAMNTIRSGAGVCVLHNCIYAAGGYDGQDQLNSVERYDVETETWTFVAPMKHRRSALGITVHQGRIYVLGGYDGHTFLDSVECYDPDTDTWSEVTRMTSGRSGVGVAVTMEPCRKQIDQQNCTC
Series [4] can be described thus: Solubility of the compound. Format: physicochemical.
The nature of series [5]: in vivo. To be noted: mouse, po.
In series [6] the target is T2, Protein-glutamine gamma-glutamyltransferase (Homo sapiens, UniProt P21980).
T2 sequence (P21980 whole entry): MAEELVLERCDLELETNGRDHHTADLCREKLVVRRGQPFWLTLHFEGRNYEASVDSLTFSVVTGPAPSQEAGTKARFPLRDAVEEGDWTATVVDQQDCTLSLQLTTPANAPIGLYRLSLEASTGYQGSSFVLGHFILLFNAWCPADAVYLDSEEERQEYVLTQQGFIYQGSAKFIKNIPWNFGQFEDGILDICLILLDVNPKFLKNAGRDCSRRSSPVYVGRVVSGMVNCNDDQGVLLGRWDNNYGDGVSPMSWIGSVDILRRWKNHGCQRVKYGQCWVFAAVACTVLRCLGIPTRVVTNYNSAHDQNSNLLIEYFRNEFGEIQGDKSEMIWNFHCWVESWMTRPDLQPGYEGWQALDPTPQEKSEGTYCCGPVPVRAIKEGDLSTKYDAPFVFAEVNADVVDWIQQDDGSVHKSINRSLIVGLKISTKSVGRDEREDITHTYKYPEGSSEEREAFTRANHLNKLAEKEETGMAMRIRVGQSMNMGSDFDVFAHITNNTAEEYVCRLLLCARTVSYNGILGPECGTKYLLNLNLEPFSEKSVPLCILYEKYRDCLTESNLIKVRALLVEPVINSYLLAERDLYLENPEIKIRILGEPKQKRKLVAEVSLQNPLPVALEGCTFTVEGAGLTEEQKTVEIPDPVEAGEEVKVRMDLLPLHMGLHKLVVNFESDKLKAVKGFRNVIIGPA
Put plainly: Inhibition of TG2 (unknown origin).

The nature of series [7]: Inhibition of PDI (unknown origin). The arrangement: species or system Homo sapiens.
The nature of series [8]: Binding affinity to PDI (unknown origin). The arrangement: species or system Homo sapiens.

Turning to `O=[N+]([O-])c1ccc(Sc2nnc(COc3ccccc3)n2-c2ccccc2)c2ncccc12`, the IC50 in series [1] is 1.2 µM. In series [2], the survival was determined as 20.7%.
For the compound `O=C(O)[C@H]1CCC[C@H]1C(=O)N1CCc2c(O)cccc2[C@H]1CN1C(=O)c2ccccc2C1=O`, in series [3], the half-maximal inhibitory concentration (IC50) stood at 0.098 µM.
Turning to `O=c1cc(N2CCOCC2)cc(N2CCCCC[C@@H]2Cc2ccccc2)[nH]1`, the solubility in series [4] turned out to be 58 µg/mL (≈ 158 µM). In series [5], the bioavailability turned out to be 68%.
As for `C=CC(=O)NCCCCC(NC(=O)OCc1ccccc1)C(=O)N1CCN(c2ccccc2Cl)CC1` (stereo not drawn), in series [6], inhibition was half-maximal at 0.062 µM (IC50).
For the compound `O=C(C1CC1)N1CCN(Cn2sc3ccccc3c2=O)CC1`, the EC50 in series [7] worked out at 0.5 µM. In series [8], this compound registered a Kd of 0.062 µM.

These data come from ChEMBL document CHEMBL5223149, “The Emerging Landscape of Small-Molecule Therapeutics for the Treatment of Huntington's Disease” (J Med Chem, 2022).
